# According to US11028077B2, “Crystalline pharmaceutical and methods of preparation and use thereof” (NOVARTIS PHARMACEUTICALS CORPORATION, priority 2008, dated 2021):
# Read-outs that look alike come from different tables or passages of the source.
# Assays:
# [1] = system: human mononuclear cells (PBMC) stimulated with staphylococcal enterotoxin B (SEB); test: cells; type: cell-based
# [2] = Single dose ocular and IV ADME study with [14C]-compound in rats, quantitative whole body autoradiography; type: in vivo, rat; details: for excretion in feces, % of the administered radioactivity: 0 to 168 hours postdose
# [3] = Rat ocular pharmacokinetics of [14C]-compound (ocular tissue levels); type: in vivo; details: for Concentration, Aqueous humor: ocular dosing in rats
# [4] = 0.5 hour postdose, topical ocular 1 mg/eye
# [5] = 0.5 hour postdose, topical ocular 1 mg/eye, above upper limit of quantification
# [6] = 8 hours postdose, topical ocular 1 mg/eye
# [7] = 24 hours postdose, topical ocular 1 mg/eye
# [8] = at 2 hours postdose vs 0.5 hour
structure (smiles),measurement,setting,value
"O=C(NC(Cc1cc(=O)[nH]c2ccccc12)C(=O)O)c1ccc(Cl)cc1 (stereo not drawn) [Rebamipide, reference compound]",EC50,[1]; read-out: EC50 Cytokine Release GM-CSF,> 1000 µM
same,EC50,[1]; read-out: EC50 Cytokine Release IFNγ,> 1000 µM
same,EC50,[1]; read-out: EC50 Cytokine Release IL-1α,> 1000 µM
same,EC50,[1]; read-out: EC50 Cytokine Release IL-1β,> 1000 µM
same,EC50,[1]; read-out: EC50 Cytokine Release IL-2,> 1000 µM
same,EC50,[1]; read-out: EC50 Cytokine Release IL-3,> 1000 µM
same,EC50,[1]; read-out: EC50 Cytokine Release IL-4,> 1000 µM
same,EC50,[1]; read-out: EC50 Cytokine Release IL-5,> 1000 µM
same,EC50,[1]; read-out: EC50 Cytokine Release IL-6,> 1000 µM
same,EC50,[1]; read-out: EC50 Cytokine Release IL-10,> 1000 µM
same,EC50,[1]; read-out: EC50 Cytokine Release IL-12p40,> 1000 µM
same,EC50,[1]; read-out: EC50 Cytokine Release IL-13,> 1000 µM
same,EC50,[1]; read-out: EC50 Cytokine Release IP-10,> 1000 µM
same,EC50,[1]; read-out: EC50 Cytokine Release MCP-1,> 1000 µM
same,EC50,[1]; read-out: EC50 Cytokine Release MIP-1α,> 1000 µM
same,EC50,[1]; read-out: EC50 Cytokine Release TNF-α,> 1000 µM
CS(=O)(=O)c1cccc(C[C@H](NC(=O)c2c(Cl)cc3c(c2Cl)CCN(C(=O)c2ccc4ccoc4c2)C3)C(=O)O)c1 [[^14C]-compound of Formula I],"radioactivity concentration, eye",[2]; [4],18100 ng equivalents [^14C]-compound of Formula I/g
same,"radioactivity concentration, liver",[2]; [4],272 ng equivalents [^14C]-compound of Formula I/g
same,"radioactivity concentration, uveal tract",[2]; [4],9330 ng equivalents [^14C]-compound of Formula I/g
same,"radioactivity concentration, esophageal contents","[2]; 0.5 hour postdose, topical ocular 1 mg/eye, male Sprague Dawley rats, above upper limit of quantification",399000 ng equivalents [^14C]-compound of Formula I/g
same,"radioactivity concentration, nasal turbinates",[2]; [5],352000 ng equivalents [^14C]-compound of Formula I/g
same,"radioactivity concentration, small intestinal contents",[2]; [5],349000 ng equivalents [^14C]-compound of Formula I/g
same,"radioactivity level, eye lens","[2]; 2 hours postdose, topical ocular 1 mg/eye",BLQ
same,"radioactivity concentration, cecum contents",[2]; [6],57600 ng equivalents [^14C]-compound of Formula I/g
same,"radioactivity concentration, large intestinal contents",[2]; [6],133000 ng equivalents [^14C]-compound of Formula I/g
same,"radioactivity concentration, uveal tract","[2]; 12 hours postdose, topical ocular 1 mg/eye",610 ng equivalents [^14C]-compound of Formula I/g
same,"radioactivity concentration, cecum contents",[2]; [7],5870 ng equivalents [^14C]-compound of Formula I/g
same,"radioactivity concentration, large intestinal contents",[2]; [7],18000 ng equivalents [^14C]-compound of Formula I/g
same,"excretion in feces, % of the administered radioactivity",[2]; IV administration 10 mg/kg,~95%
same,"decline of radioactivity concentration, esophageal contents",[2]; [8],~100 fold
same,"decline of radioactivity concentration, esophagus",[2]; [8],approximately 50 fold
same,"excretion in feces, % of the administered radioactivity",[2]; ocular administration 1 mg/eye,approximately 60%
same,"Urinary excretion, % of the administered radioactivity",[2]; ocular or IV administration,up to 2%
same,"metabolites in pooled plasma, urine and fecal homogenates","[2]; rats, up to 168 hrs following topical ocular or IV dose",no metabolites were isolated
same,"Concentration, Conjunctiva (bulbar)",[3]; 0.5 hour after administration,31500 ng Equivalents [^14C]-compound of Formula I/g tissue
same,"Concentration, Conjunctiva (palpebral)",[3]; 0.5 hour after administration,26300 ng Equivalents [^14C]-compound of Formula I/g tissue
same,"Concentration, Cornea",[3]; 0.5 hour after administration,17150 ng Equivalents [^14C]-compound of Formula I/g tissue
same,"Concentration, Iris-ciliary body",[3]; 0.5 hour after administration,17550 ng Equivalents [^14C]-compound of Formula I/g tissue
same,"Concentration, Lens",[3]; 0.5 hour after administration,38.8 ng Equivalents [^14C]-compound of Formula I/g tissue
same,"Concentration, Optic Nerve",[3]; 0.5 hour after administration,796 ng Equivalents [^14C]-compound of Formula I/g tissue
same,"Concentration, Retina and Choroid (with RPE)",[3]; 0.5 hour after administration,510 ng Equivalents [^14C]-compound of Formula I/g tissue
same,"Concentration, Sclera",[3]; 0.5 hour after administration,2750 ng Equivalents [^14C]-compound of Formula I/g tissue
same,"Concentration, Vitreous Humor",[3]; 0.5 hour after administration,1330 ng Equivalents [^14C]-compound of Formula I/g tissue
same,"Concentration, Aqueous humor",[3]; 0.5 hour after administration,1770 ng Equivalents [^14C]-compound of Formula I/g tissue
same,"Concentration, Conjunctiva (bulbar)",[3]; 4.0 hours after administration,4480 ng Equivalents [^14C]-compound of Formula I/g tissue
same,"Concentration, Conjunctiva (palpebral)",[3]; 4.0 hours after administration,21830 ng Equivalents [^14C]-compound of Formula I/g tissue
same,"Concentration, Cornea",[3]; 4.0 hours after administration,1346 ng Equivalents [^14C]-compound of Formula I/g tissue
same,"Concentration, Iris-ciliary body",[3]; 4.0 hours after administration,500 ng Equivalents [^14C]-compound of Formula I/g tissue
same,"Concentration, Lens",[3]; 4.0 hours after administration,9.69 ng Equivalents [^14C]-compound of Formula I/g tissue
same,"Concentration, Optic Nerve",[3]; 4.0 hours after administration,0 ng Equivalents [^14C]-compound of Formula I/g tissue
same,"Concentration, Retina and Choroid (with RPE)",[3]; 4.0 hours after administration,46.7 ng Equivalents [^14C]-compound of Formula I/g tissue
same,"Concentration, Sclera",[3]; 4.0 hours after administration,387 ng Equivalents [^14C]-compound of Formula I/g tissue
same,"Concentration, Vitreous Humor",[3]; 4.0 hours after administration,183 ng Equivalents [^14C]-compound of Formula I/g tissue
same,"Concentration, Aqueous humor",[3]; 4.0 hours after administration,116 ng Equivalents [^14C]-compound of Formula I/g tissue
